Measurements as given in patent publication US12139729B2, “Neurodegenerative disorders” (priority 2013, dated 2024).
Where two headings read alike, the source gives them in different places. No end group written: not given here.

Key:
[1] = biological target: allosteric site on the α7 nicotinic-receptor (Rattus norvegicus, UniProt Q05941); test: Binding affinity for the allosteric site of the α7 nicotinic-receptor, using tests for viability
[2] = system: PC12 cells; test: Sulforhodamine B (SRB) cell viability assay; format: cell-based
Procedure: (§1) Wild-type PC12 cell were provided by Sigma-Aldrich (St. Louis, MO). The culture was routinely plated in 100 mm dishes (Corning) coated with collagen (2 μg/cm^2) and maintained in growth medium with Minimum Essential Medium Eagle (MEM) supplemented with heat-inactivated 10% horse serum (HS) and 5% foetal bovine serum (FBS), 10 mM HEPES, 2 mM L-Glutamine and 1:400 Penicillin/streptomycin solution. Cells were maintained at 37° C. in a humidified atmosphere 5% CO2 and the medium was replaced every 2 days. For splitting, cells were dislodged from the dish using a pipette with medium, with a portion of these replated onto new cultured dishes. Cells were used between passages 12 and 25.
(§2) The cell viability assay used was the sulforhodamine B (SRB) colorimetric assay for toxicity screening. The day before of the experiment cells were seeded onto collagen-coated 96-well plates in a concentration of 40,000 cells/well. Cell concentration was determined by the Fuchs-Rosenthal chamber. […] After treatment, medium was replaced and cells were fixed by adding 100 μl of 10% Trichloroacetic Acid (TCA) for 1 h at 4° C. Thereafter, cells were washed with H2O and stained with 100 μl of a 0.057% SRB solution in 1% Acetic acid (HAc) for 30 minutes at room temperature. After staining cells were washed with 1% HAc for removing the excess of SRB and then incubated with 200 μl of 10 mM Tris base (pH 10.5) and shake it for 5 minutes to solubilise the protein-bound dye. Measurement of the absorbance took place in a VMax Kinetic Microplate Reader (Molecular Devices) at 490 nm.

[3] = cited from earlier work
[4] = biological target: T1, α7nAChR (the α7 nicotinic acetylcholine receptor), allosteric site (Rattus norvegicus, UniProt Q05941); test: [3H] Ivermectin binding assay on PC12 cell membranes
T1 construct: [3H]; host or cells: wild-type PC12 cells
Procedure: PC12 membranes where obtained to perform binding assays. PC12 cells were grown until confluence on 100 mm plates. Growth medium was removed and ice-cold 50 mM Tris-HCl buffer (pH 7.4) containing 4.5 μg/μ1 aprotinin and 0.1 mM phenylmethylsulphonylfluoride (PMSF) were added. Cells were mechanically detached and pelleted by centrifugation (1040×g) for 4 minutes at 4° C. Pellets were homogenized with a Polytron and centrifuged (13000×g) for 20 minutes at 4° C. The pellets were resuspended in fresh buffer and incubated at 37° C. for 10 minutes to remove endogenous neurotransmitters. The samples were subsequently re-centrifuged. The final pellet was resuspended in buffer and the protein concentration determined using the Bradford Reagent (Sigma-Aldrich, St. Louis, MO). The cell membrane preparation was stored at −80° C.
For the binding with PC12 membranes, each incubation was performed in polystyrene tube (VWR International Ltd; Leicestershire, UK) containing 0.25 ml of membranes diluted in Tris-HCl 50 mM buffer (containing 50 μg of PC12 membranes) with 5 nM [3H] […] Thereafter, samples were filtered through Brandel GB glass fibre filters (MD, USA); pre-soaked in 0.5% polyethylenemine by a Harvester (Brandel; MD, USA). Tubes were washed 3 times with ice cold 50 mM Tris-HCl buffer. Radioactivity in the tubes was counted by scintillation spectrometry using a 300 SL Liquid scintillation counter (Lablogic Systems Limited, UK). Specific binding was determined by subtracting the non-specific (cells treated with Ivermectin 30 μM) value to all the tubes.

[5] = Sulforhodamine B (SRB) cell viability assay; format: cell-based; settings: 10 μM, 1 hour, PC12; read-out: cell viability, peptide alone
Procedure: as §1, §2

allosteric site on the α7 nicotinic-receptor, sequence (Q05941 23-502): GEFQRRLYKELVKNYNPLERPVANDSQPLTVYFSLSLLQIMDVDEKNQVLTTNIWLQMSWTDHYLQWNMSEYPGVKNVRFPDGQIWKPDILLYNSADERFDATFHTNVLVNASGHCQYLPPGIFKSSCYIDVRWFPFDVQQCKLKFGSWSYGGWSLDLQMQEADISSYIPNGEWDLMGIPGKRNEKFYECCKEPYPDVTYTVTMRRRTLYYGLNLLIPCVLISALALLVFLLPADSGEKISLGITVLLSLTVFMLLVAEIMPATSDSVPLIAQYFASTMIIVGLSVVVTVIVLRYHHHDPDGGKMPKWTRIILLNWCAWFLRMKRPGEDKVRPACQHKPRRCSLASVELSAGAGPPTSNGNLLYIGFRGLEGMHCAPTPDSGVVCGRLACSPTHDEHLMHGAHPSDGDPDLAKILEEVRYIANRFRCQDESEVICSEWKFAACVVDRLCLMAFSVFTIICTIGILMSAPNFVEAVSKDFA
T1 sequence (Q05941 23-502): as above

| Compound | binding affinity for the allosteric site on the α7 nicotinic-receptor [1] | binding affinity for the allosteric site on the α7 nicotinic-receptor ([1]; listed as galanthamine) [µM] | affinity (Table 3 feature) ([1]; ✓ = Dream Drug feature 'Nanomolar affinity') | dose that blocks β-Amyloid (Table 3 feature) ([2]; 'high doses') | minimum effective concentration against β-Amyloid (10 μM) on cell viability ([2]; PC12, FIG. 8) [nM] | bioavailability periphery (Table 3 feature) [3] | % [3H] Ivermectin binding (Mean ± SEM) ([4]; 100 nM competitor, Table 2, N = 6) [%] | % [3H] Ivermectin binding (Mean ± SEM) ([4]; 200 nM competitor, Table 2) [%] | % [3H] Ivermectin binding (Mean ± SEM) ([4]; 500 nM competitor, Table 2) [%] | % [3H] Ivermectin binding (Mean ± SEM) ([4]; 700 nM competitor, Table 2) [%] | % [3H] Ivermectin binding (Mean ± SEM) ([4]; 1 μM competitor, Table 2) [%] | % [3H] Ivermectin binding (Mean ± SEM) ([4]; 2 μM competitor, Table 2) [%] | viability at 10 µM [5] [%] | % [3H] Ivermectin binding (Mean ± SEM) ([4]; 1 nM competitor, Table 1) [%] | % [3H] Ivermectin binding (Mean ± SEM) ([4]; 10 nM competitor, Table 1) [%] | % [3H] Ivermectin binding (Mean ± SEM) ([4]; 100 nM competitor, Table 1) [%] | % [3H] Ivermectin binding (Mean ± SEM) ([4]; 1 μM competitor, Table 1) [%] | % [3H] Ivermectin binding (Mean ± SEM) ([4]; 5 μM competitor, Table 1) [%] |
| --- | --- | --- | --- | --- | --- | --- | --- | --- | --- | --- | --- | --- | --- | --- | --- | --- | --- | --- |
| COc1ccc2c3c1O[C@H]1C[C@@H](O)C=C[C@@]31CCN(C)C2 [Galanthamine] | low affinity | 10 | Micromolar affinity | doses (0.1 μM) | 100 | High bioavailability | 100.00 ± 11.48 | 97.86 ± 1.40 | 90.96 ± 1.87 | 69.68 ± 9.87 | 67.17 ± 6.64 | 66.32 ± 4.29 |  |  |  |  |  |  |
| AEFHRWSSYMVHWK [T14] | 0.005 µM |  |  |  |  |  |  |  |  |  |  |  | 83 ± 5.38 | 100 ± 9.91 | 90.92 ± 2.38 | 88.92 ± 3.82 | 85.17 ± 3.03 | 85.36 ± 3.96 |
